Test results taken from ChEMBL document CHEMBL5120798, “Design and synthesis of an N-benzyl 5-(4-sulfamoylbenzylidene-2-thioxothiazolidin-4-one scaffold as a novel NLRP3 inflammasome inhibitor” (Bioorg Med Chem Lett, 2022).
Activity calls are given as the source filed them. The calls are words filed in the database; no cut-off is given here.

Assays:
Type in all cases: cell-based
[1] = target: NACHT, LRR and PYD domains-containing protein 3 (Mus musculus) (UniProt Q8R4B8); test: Inhibition of NLRP3 inflammasome activation in LPS-primed mouse BMDM cells assessed as reduction in LPS/ATP induced cleaved IL-1beta release in supernatant at 2 uM preincubated for 30 mins followed by LPS addition for 3 hrs prior to ATP addition for 30 mins by Western blot analysis; conditions: time 4.0 hrs
[2] = target: NACHT, LRR and PYD domains-containing protein 3 (Homo sapiens) (UniProt Q96P20); test: Inhibition of NLRP3 inflammasome assembly in human THP-1 cells assessed as reduction in ASC oligomers formation
[3] = target: NACHT, LRR and PYD domains-containing protein 3 (Mus musculus) (UniProt Q8R4B8); test: Inhibition of NLRP3 inflammasome assembly in LPS/nigericin stimulated mouse BMDM cells assessed as reduction in NLRP3 specks; conditions: concentration not given here
[4] = target: NACHT, LRR and PYD domains-containing protein 3 (Mus musculus) (UniProt Q8R4B8); test: Inhibition of NLRP3 inflammasome activation in LPS-primed mouse BMDM cells assessed as reduction in LPS/ATP induced cleaved IL-1beta release in supernatant preincubated for 30 mins followed by LPS addition for 3 hrs prior to ATP addition for 30 mins by Western blot analysis; conditions: dose 4-10 µM, time 4.0 hrs, DDE = dose-dependent effect
[5] = target: NACHT, LRR and PYD domains-containing protein 3 (Mus musculus) (UniProt Q8R4B8); test: Inhibition of NLRP3 inflammasome activation in LPS-primed mouse BMDM cells assessed as reduction in LPS/ATP induced cleaved caspase 1 level in supernatant preincubated for 30 mins followed by LPS addition for 3 hrs prior to ATP addition for 30 mins by Western blot analysis; conditions: dose 4-10 µM, time 4.0 hrs, DDE = dose-dependent effect

NACHT, LRR and PYD domains-containing protein 3 (Mus musculus), sequence (Q8R4B8 whole entry, the tested form may be a part): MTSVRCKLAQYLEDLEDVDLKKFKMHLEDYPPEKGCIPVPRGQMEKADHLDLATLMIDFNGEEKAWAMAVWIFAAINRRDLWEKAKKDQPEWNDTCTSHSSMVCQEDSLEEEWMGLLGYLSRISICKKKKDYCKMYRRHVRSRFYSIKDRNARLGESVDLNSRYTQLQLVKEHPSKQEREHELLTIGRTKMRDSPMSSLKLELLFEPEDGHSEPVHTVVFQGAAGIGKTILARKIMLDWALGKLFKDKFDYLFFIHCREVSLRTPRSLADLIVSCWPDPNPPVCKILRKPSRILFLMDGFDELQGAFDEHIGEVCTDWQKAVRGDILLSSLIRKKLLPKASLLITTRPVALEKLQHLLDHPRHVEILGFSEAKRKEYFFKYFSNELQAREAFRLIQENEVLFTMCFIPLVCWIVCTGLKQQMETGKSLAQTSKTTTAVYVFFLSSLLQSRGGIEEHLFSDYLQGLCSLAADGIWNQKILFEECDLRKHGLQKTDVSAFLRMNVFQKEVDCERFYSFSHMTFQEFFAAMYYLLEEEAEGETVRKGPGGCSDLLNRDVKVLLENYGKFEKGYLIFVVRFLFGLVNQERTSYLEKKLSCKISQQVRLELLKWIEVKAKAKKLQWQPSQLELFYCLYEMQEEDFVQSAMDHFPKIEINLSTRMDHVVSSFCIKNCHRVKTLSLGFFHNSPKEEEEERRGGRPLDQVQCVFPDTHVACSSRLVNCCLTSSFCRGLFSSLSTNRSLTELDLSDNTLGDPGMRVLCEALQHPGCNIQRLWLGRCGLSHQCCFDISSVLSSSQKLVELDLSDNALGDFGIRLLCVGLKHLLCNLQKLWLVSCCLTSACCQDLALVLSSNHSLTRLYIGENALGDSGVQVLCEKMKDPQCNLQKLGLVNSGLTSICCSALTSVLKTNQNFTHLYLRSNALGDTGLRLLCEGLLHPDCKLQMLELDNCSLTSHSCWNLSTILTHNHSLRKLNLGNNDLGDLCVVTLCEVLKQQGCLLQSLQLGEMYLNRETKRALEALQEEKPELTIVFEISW
NACHT, LRR and PYD domains-containing protein 3 (Homo sapiens), sequence (Q96P20 whole entry, the tested form may be a part): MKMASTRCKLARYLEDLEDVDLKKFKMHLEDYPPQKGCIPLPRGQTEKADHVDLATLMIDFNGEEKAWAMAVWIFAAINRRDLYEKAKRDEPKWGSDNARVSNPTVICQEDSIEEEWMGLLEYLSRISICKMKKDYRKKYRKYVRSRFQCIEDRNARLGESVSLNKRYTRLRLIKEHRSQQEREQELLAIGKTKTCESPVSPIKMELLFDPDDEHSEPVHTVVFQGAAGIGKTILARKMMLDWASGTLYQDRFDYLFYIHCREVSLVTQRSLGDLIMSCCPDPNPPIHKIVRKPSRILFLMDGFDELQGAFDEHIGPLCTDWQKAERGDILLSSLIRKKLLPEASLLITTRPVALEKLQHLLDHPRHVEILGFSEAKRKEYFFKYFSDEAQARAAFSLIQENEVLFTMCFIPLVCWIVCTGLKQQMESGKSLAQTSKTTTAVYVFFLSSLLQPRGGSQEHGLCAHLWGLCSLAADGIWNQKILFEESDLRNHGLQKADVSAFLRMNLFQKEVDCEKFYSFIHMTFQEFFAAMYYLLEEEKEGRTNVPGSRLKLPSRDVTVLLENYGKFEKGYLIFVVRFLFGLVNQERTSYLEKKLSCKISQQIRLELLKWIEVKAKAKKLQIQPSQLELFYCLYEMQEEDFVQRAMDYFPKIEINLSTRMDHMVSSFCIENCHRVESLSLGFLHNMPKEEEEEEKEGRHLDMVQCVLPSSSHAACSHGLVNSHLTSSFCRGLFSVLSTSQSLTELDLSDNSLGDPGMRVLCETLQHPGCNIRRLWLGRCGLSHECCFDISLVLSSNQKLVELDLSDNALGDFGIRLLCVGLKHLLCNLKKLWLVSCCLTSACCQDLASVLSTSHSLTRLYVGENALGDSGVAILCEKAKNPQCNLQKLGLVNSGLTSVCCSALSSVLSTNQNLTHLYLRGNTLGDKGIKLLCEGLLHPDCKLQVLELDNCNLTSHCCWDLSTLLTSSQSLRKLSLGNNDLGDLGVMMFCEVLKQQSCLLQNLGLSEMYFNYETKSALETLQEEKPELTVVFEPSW

SMILES	inhibition [1]	inhibition [2]	inhibition [3]	inhibition [4]	inhibition [5]
COc1ccc(Cl)cc1CN1C(=O)/C(=C/c2ccc(S(N)(=O)=O)cc2)SC1=S		Active	60%	Dde	Dde
COc1ccc(Cl)c(CN2C(=O)/C(=C/c3ccc(S(N)(=O)=O)cc3)SC2=S)c1		Active	60%	Dde	Dde
NS(=O)(=O)c1ccc(/C=C2\SC(=S)N(Cc3cccc(Cl)c3)C2=O)cc1	Active				

Continued, values first:

inhibition [1]	inhibition [2]	inhibition [3]	inhibition [4]	inhibition [5]	SMILES
Active					CCCCOc1ccc(Cl)cc1CN1C(=O)/C(=C/c2ccc(S(N)(=O)=O)cc2)SC1=S
Active					COc1ccccc1CN1C(=O)/C(=C/c2ccc(S(N)(=O)=O)cc2)SC1=S
